Assay results reported in patent US8778871B2 (Takeda Pharmaceutical Company Limited, priority 2004, dated 2014).
Starred links: 1 amine or outer side, 2 acyl side, 3 side chain; linkers in the order of their positions; H or OH if unused. Non-standard residues stand in square brackets, D forms with d. Residues, ends and D or L forms follow the SMILES beside them. *: point of attachment. X8 = O=C([C@H](Cc1ccc2ccccc2n1)N[*:1])[*:2]; Cyclohexanecarbonyl = O=C(C1CCCCC1)*; Arg(Me) = CNC(=N)NCCC[C@H](N)C(=O)O; 2Pal = N[C@@H](Cc1ccccn1)C(=O)O; d3Pal = N[C@H](Cc1cccnc1)C(=O)O; d4Pal = N[C@H](Cc1ccncc1)C(=O)O; Cha = N[C@@H](CC1CCCCC1)C(=O)O; Cbz = O=C(OCc1ccccc1)*; azaGly = NNC(=O)O

Target: T1, hOT7T175 (Homo sapiens, UniProt Q969F8)
T1 construct: expressed in transfected cells
Assay: Intracellular Ca ion level-increasing activity using FLIPR (180 seconds; specific activity to Metastin (1-54))
Type: cell-based
Settings: hOT7T175/CHO, change in intracellular calcium ion level for 180 seconds, Tables 21-23
Method: In accordance with the method described in JPA 2000-312590, the intracellular Ca ion level-increasing activity was measured using FLIPR. […]
The intracellular Ca ion level-increasing activity of the synthetic peptide in hOT7T175/CHO was determined using FLIPR (Molecular Devices, Inc.).
hOT7T175/CHO was subcultured in DMEM supplemented with 10% dialyzed fetal bovine serum (hereinafter abbreviated as dFBS) and provided for the experiment (hereinafter abbreviated as 10% dFBS/DMEM). The hOT7T175/CHO was suspended in 10% dFBS-DMEM in 15×10^4 cells/ml. The suspension was inoculated on a 96-well plate for FLIPR (Black Plate Clear Bottom, Coster, Inc.) at 200 μl each (3.0×10^4 cells/200 μl), followed by incubation at 37° C. overnight in a 5% CO2 incubator. The cells thus incubated were used (hereinafter simply referred to as the cell plate). Then, 21 ml of HANKS/HBSS (9.8 g of HANKS', 0.35 g of sodium hydrogencarbonate, 20 ml of 1M HEPES; after adjusting the pH to 7.4 with 1N sodium hydroxide, the mixture was subjected to sterilization through a filter), 210 μl of […] Probenecid and 210 μl of fetal bovine serum (FBS) were mixed (HANKS/HBSS-Probenecid-FBS).
Furthermore, 2 vials of Fluo3-AM (50 μg/vial) were dissolved in 21 μL of dimethylsulfoxide and 21 μL of 20% Pluronic acid. The resulting solution was added to and mixed with 10 ml of HANKS/HBSS-Probenecid-FBS described above. After the culture medium was removed, the mixture was dispensed onto the cell plate in 100 μl each/well, followed by incubation at 37° C. for an hour in a 5% CO2 incubator (pigment loading). The peptide was dissolved in dimethylsulfoxide in 1×10^−3 M. The peptide solution was diluted with HANKS'/HBSS containing 2.5 mM Probenecid and 0.2% BSA. The dilution was transferred to a 96-well plate for FLIPR (V-Bottom plate, Coster, Inc.) (hereinafter referred to as a sample plate). After completion of the pigment loading onto the cell plate, the cell plate washed 4 times with wash buffer, which was obtained by adding 2.5 mM Probenecid to HANKS'/HBSS, using a plate washer to leave 100 μL of wash buffer after the washing. The cell plate and the sample plate were set in FLIPR and 0.05 ml of a sample from the sample plate was automatically transferred to the cell plate with the FLIPR device to promote the cell response. A change in intracellular calcium ion level for 180 seconds was measured with passage of time.

T1 sequence (Q969F8 whole entry L364H): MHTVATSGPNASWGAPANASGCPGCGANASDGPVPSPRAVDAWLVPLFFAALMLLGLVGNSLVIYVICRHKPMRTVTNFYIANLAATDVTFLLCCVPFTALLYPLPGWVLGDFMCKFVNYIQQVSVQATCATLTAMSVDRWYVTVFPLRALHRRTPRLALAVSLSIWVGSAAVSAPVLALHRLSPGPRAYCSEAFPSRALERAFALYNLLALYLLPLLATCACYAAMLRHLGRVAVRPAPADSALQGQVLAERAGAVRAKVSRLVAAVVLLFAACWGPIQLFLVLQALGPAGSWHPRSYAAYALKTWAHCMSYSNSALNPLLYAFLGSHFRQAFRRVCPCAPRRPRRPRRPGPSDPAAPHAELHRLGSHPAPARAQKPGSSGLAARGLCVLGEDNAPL

| Compound | intracellular Ca ion level-increasing activity [specific activity to Metastin (1-54)] |
| --- | --- |
| CNC(=N)NCCC[C@H](NC(=O)[C@H](CC(C)C)NC(=O)NNC(=O)[C@H](Cc1ccccc1)NC(=O)[C@H](CO)NC(=O)[C@H](CC(N)=O)NC(=O)[C@H](Cc1c[nH]c2ccccc12)NC(=O)[C@H](N)Cc1cccnc1)C(=O)N[C@@H](Cc1ccccc1)C(N)=O [Compound No. 289, D-Pya(3)-Trp-Asn-Ser-Phe-AzaGly-Leu-Arg(Me)-Phe-NH2] (H-[d3Pal]WNSF[azaGly]L[Arg(Me)]F-NH2) | 1 |
| Dibenzylaminocarbamoyl-AzaGly-Leu-Arg(Me)-Trp-NH2 [Compound No. 428] | 1/10 |
| CNC(=N)NCCC[C@H](NC(=O)[C@H](CC(C)C)NC(=O)CNC(=O)[C@H](Cc1ccccn1)NC(=O)[C@H](CO)NC(=O)[C@H](CC(N)=O)NC(=O)[C@H](Cc1c[nH]c2ccccc12)NC(=O)[C@H](CC(N)=O)NC(=O)[C@H](N)Cc1ccc(O)cc1)C(=O)N[C@@H](Cc1ccccc1)C(N)=O [Compound No. 281, D-Tyr-Asn-Trp-Asn-Ser-Pya(2)-Gly-Leu-Arg(Me)-Phe-NH2] (H-[dY]NWNS[2Pal]GL[Arg(Me)]F-NH2) | ½ |
| 3-(3-Indolyl)propionyl-Phe-Gly-Leu-Arg-Phe-NH2 [Compound No. 352] | ⅓ |
| CNC(=N)NCCC[C@H](NC(=O)[C@H](CC(C)C)NC(=O)NNC(=O)[C@H](Cc1ccccc1)NC(=O)[C@H](CO)NC(=O)[C@H](CC(N)=O)NC(=O)[C@H](Cc1c[nH]c2ccccc12)NC(=O)[C@@H](CO)NC(=O)[C@H](N)Cc1ccc(O)cc1)C(=O)N[C@@H](Cc1ccccc1)C(N)=O [Compound No. 287, D-Tyr-D-Ser-Trp-Asn-Ser-Phe-AzaGly-Leu-Arg(Me)-Phe-NH2] (H-[dY][dS]WNSF[azaGly]L[Arg(Me)]F-NH2) | 2 |
| Phenylacetyl-Phe-AzaGly-Leu-Arg(Me)-Trp-NH2 [Compound No. 440] | 1 |
| 4-Pyridinecarbonyl-Phe-AzaGly-Val-Arg(Me)-Trp-NH2 [Compound No. 460] | ⅓ |
| Benzoyl-AzaPhe-AzaGly-Leu-Arg(Me)-Trp-NH2 [Compound No. 431] | 1 |
| Cbz-[azaGly]L[Arg(Me)]W-NH2 [Compound No. 374] | ⅓ |
| Pyrazinecarbonyl-Phe-AzaGly-Leu-Arg(Me)-Trp-NH2 [Compound No. 446] | 1 |
| CNC(=N)NCCC[C@H](NC(=O)[C@H](CC(C)C)NC(=O)NNC(=O)[C@H](Cc1ccccc1)NC(=O)[C@H](CO)NC(=O)[C@H](CC(N)=O)NC(=O)[C@@H](NC(=O)[C@@H](CC(N)=O)NC(=O)[C@H](N)Cc1ccc(O)cc1)[C@@H](C)O)C(=O)N[C@@H](Cc1ccccc1)C(N)=O [Compound No. 284, D-Tyr-D-Asn-Thr-Asn-Ser-Phe-AzaGly-Leu-Arg(Me)-Phe-NH2] (H-[dY][dN]TNSF[azaGly]L[Arg(Me)]F-NH2) | 1 |
| Dibenzylaminocarbamoylacetyl-Leu-Arg(Me)-Trp-NH2 [Compound No. 434] | 1/10 |
| n-Hexanoyl-Phe-AzaGly-Leu-Arg(Me)-Phe-NH2 [Compound No. 347] | ½ |
| CNC(=N)NCCC[C@H](NC(=O)[C@H](CC(C)C)NC(=O)NNC(=O)[C@H](Cc1ccccc1)NC(=O)[C@H](CO)NC(=O)[C@H](CC(N)=O)NC(=O)[C@@H](Cc1ccncc1)NC(=O)[C@H](CC(N)=O)NC(=O)[C@H](N)Cc1ccc(O)cc1)C(=O)N[C@@H](Cc1ccccc1)C(N)=O [Compound No. 302, D-Tyr-Asn-D-Pya(4)-Asn-Ser-Phe-AzaGly-Leu-Arg(Me)-Phe-NH2] (H-[dY]N[d4Pal]NSF[azaGly]L[Arg(Me)]F-NH2) | 2 |
| Benzylphenethylcarbamoyl-AzaGly-Leu-Arg(Me)-Trp-NH2 [Compound No. 417] | 1 |
| n-Hexanoyl-Phe-AzaGly-Leu-Arg(Me)-Trp-NH2 [Compound No. 366] | ⅓ |
| 2-Methylnicotinoyl-Phe-AzaGly-Leu-Arg(Me)-Trp-NH2 [Compound No. 443] | ½ |
| CNC(=N)NCCC[C@H](NC(=O)[C@H](CC(C)C)NC(=O)NNC(=O)[C@H](Cc1ccccc1)NC(=O)[C@H](CO)NC(=O)[C@H](CC(N)=O)NC(=O)[C@H](Cc1ccc2ccccc2n1)NC(=O)[C@H](CC(N)=O)NC(=O)[C@H](N)Cc1ccc(O)cc1)C(=O)N[C@@H](Cc1ccccc1)C(N)=O [Compound No. 301, D-Tyr-Asn-Ala(2-Qui)-Asn-Ser-Phe-AzaGly-Leu-Arg(Me)-Phe-NH2] (H-[dY]N[X8]NSF[azaGly]L[Arg(Me)]F-NH2) | 1 |
| D-Tyr-D-Pya(4)-Asn-Ser-Phe-AzaGly-Leu-Orn-Phe-NH2 [Compound No. 486] | ½ |
| Cbz-F[azaGly]L[Arg(Me)]F-NH2 [Compound No. 348] | ⅕ |
| CNC(=N)NCCC[C@H](NC(=O)[C@H](CC(C)C)NC(=O)NNC(=O)[C@H](Cc1ccccc1)NC(=O)[C@H](CO)NC(=O)[C@H](CC(N)=O)NC(=O)[C@H](Cc1ccccc1)NC(=O)[C@H](N)Cc1cccnc1)C(=O)N[C@@H](Cc1ccccc1)C(N)=O [Compound No. 256, D-Pya(3)-Phe-Asn-Ser-Phe-AzaGly-Leu-Arg(Me)-Phe-NH2] (H-[d3Pal]FNSF[azaGly]L[Arg(Me)]F-NH2) | 1 |
| CNC(=N)NCCC[C@H](NC(=O)[C@H](CC(C)C)NC(=O)NNC(=O)[C@H](Cc1ccccc1)NC(=O)[C@H](CO)NC(=O)[C@H](CC(N)=O)NC(=O)[C@H](CC1CCCCC1)NC(=O)[C@@H](Cc1ccc(O)cc1)NC(=O)[C@H](N)Cc1cccnc1)C(=O)N[C@@H](Cc1ccccc1)C(N)=O [Compound No. 291, D-Pya(3)-D-Tyr-Cha-Asn-Ser-Phe-AzaGly-Leu-Arg(Me)-Phe-NH2] (H-[d3Pal][dY][Cha]NSF[azaGly]L[Arg(Me)]F-NH2) | 2 |
| CNC(=N)NCCC[C@H](NC(=O)[C@H](CC(C)C)NC(=O)NNC(=O)[C@H](Cc1ccccc1)NC(=O)[C@H](CO)NC(=O)[C@H](CC(N)=O)NC(=O)C1CCCCC1)C(=O)N[C@@H](Cc1ccccc1)C(N)=O [Compound No. 278, Cyclohexanecarbonyl-Asn-Ser-Phe-AzaGly-Leu-Arg(Me)-Phe-NH2] (Cyclohexanecarbonyl-NSF[azaGly]L[Arg(Me)]F-NH2) | 2 |
| Benzoyl-Pya(2)-AzaGly-Leu-Arg(Me)-Trp-NH2 [Compound No. 441] | 1 |
| (R)-3-hydroxy-2-methylpropionyl-Phe-AzaGly-Leu-Arg(Me)-Trp-NH2 [Compound No. 452] | 1 |
| Benzoyl-PheΨ(CH2O)Gly-Leu-Arg(Me)-Trp-NH2 [Compound No. 421] | ⅓ |
| Methylthiocarbamoyl-Sar-D-Tyr-Asn-Trp-Asn-Ser-Phe-Gly-Leu-Arg(Me)-Phe-NH2 [Compound No. 397] | 5 |
| CNC(=N)NCCC[C@H](NC(=O)[C@H](CC(C)C)NC(=O)NNC(=O)[C@H](Cc1ccccc1)NC(=O)[C@H](CO)NC(=O)[C@H](CC(N)=O)NC(=O)[C@H](Cc1c[nH]c2ccccc12)NC(=O)[C@@H](Cc1c[nH]cn1)NC(=O)[C@H](N)Cc1ccc(O)cc1)C(=O)N[C@@H](Cc1ccccc1)C(N)=O [Compound No. 288, D-Tyr-D-His-Trp-Asn-Ser-Phe-AzaGly-Leu-Arg(Me)-Phe-NH2] (H-[dY][dH]WNSF[azaGly]L[Arg(Me)]F-NH2) | 1 |
